Assay results as given in US20240391882A1 (Mirati Therapeutics, Inc., priority 2023, published 2024).
pIC50: −log10 of the molar value.

Tests used:
Type in all cases: cell-based
[1] = tested on: SKBR3 (PI3Kα wild type) cells; experiment: Cell viability (CellTiter-Glo 2.0) in SKBR3 cells; conditions: Homo sapiens, SK-BR-3; SKBR3 (PI3Kα wild type) cells, approximately 72 hours, CellTiter-Glo 2.0; read-out: SKBR3 (WT) Viability IC50
Outline: (§1)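 IC50 values derive from four-parameter fits of CellTiter-Glo luminescence expressed as percent of vehicle control. Cells (T47D or SKBR3) were plated at 1000/well the day before dosing and incubated about 72 h at 37° C with a 10-point, 1:4 series starting at 10 μm.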

[2] = tested on: T47D (PI3Kα H1047R mutant) cells; experiment: Cell viability (CellTiter-Glo 2.0) in T47D cells; conditions: Homo sapiens, T47D, 72 h, approximately 72 hours
Outline: as §1

[3] = tested on: pAKT in T47D (PI3Kα H1047R mutant) cells; experiment: Inhibition of pAKT (alphaLISA Surefire Ultra AKT 1/2/3 pS473) in T47D cells; conditions: Homo sapiens; T47D (PI3Kα H1047R mutant) cells, 24 hr compound incubation, alphaLISA pS473; read-out: T47D (H1047R) pAKT 24 hr (IC50)
Outline: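 AlphaLISA read-out of AKT pS473 in lysates after roughly 24 h compound exposure at 37° C in HBSS. Ten concentrations, 1:4 dilutions from a 10.4 μm top dose. Percent of control uses alpelisib at 3.125 μm as background and DMSO as vehicle; four-parameter curve gives IC50.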

| SMILES | pIC50 [1] | pIC50 [2] | pIC50 [3] |
| --- | --- | --- | --- |
| Cc1cc([C@@H](C)Nc2ccc(Cl)nc2C(=O)O)c2nc(N3CCc4cnccc4C3)c(C#N)nc2c1 [Example 216, (R)-6-chloro-3-((1-(2-cyano-3-(3,4-dihydro-2,6-naphthyridin-2(1H)-yl)-7-methylquinoxalin-5-yl)ethyl)amino)picolinic acid] | < 5.00 | 7.32 | 9.35 |
| Cc1cc([C@@H](C)Nc2ccc(Cl)nc2C(=O)O)c2nc(N3C[C@H]4CSC[C@H]4C3)c(C#N)nc2c1 [Example 848, 6-chloro-3-(((R)-1-(2-cyano-7-methyl-3-cis-tetrahydro-1h-thieno[3,4-c]pyrrol-5(3H)-ylquinoxalin-5-yl)ethyl)amino)picolinic acid] | 5.11 | 7.05 | 8.77 |
| Cc1cc([C@@H](C)Nc2ccc(Cl)nc2C(=O)O)c2nc(NCC3CC3)c(C#N)nc2c1 [Example 25, (R)-6-chloro-3-((1-(2-cyano-3-((cyclopropylmethyl)amino)-7-methylquinoxalin-5-yl)ethyl)amino)picolinic acid] | < 5.00 | 6.76 | 8.92 |
| COC1(C)CN(c2nc3c([C@@H](C)Nc4ccc(Cl)nc4C(=O)O)cc(C)cc3nc2C#N)C1 [Example 64, (R)-6-chloro-3-((1-(2-cyano-3-(3-methoxy-3-methylazetidin-1-yl)-7-methylquinoxalin-5-yl)ethyl)amino)picolinic acid] | < 5.00 | 7.36 | 8.89 |
| Cc1cc([C@H](C)Nc2ccccc2C(=O)O)c2nc(N3CCC(F)(F)CC3)c(C#N)nc2c1 [Example 4, (S)-2-((1-(2-cyano-3-(4,4-difluoropiperidin-1-yl)-7-methylquinoxalin-5-yl)ethyl)amino)benzoate] | < 5.00 | 5.03 | 6.07 |
| Cc1cc([C@@H](C)Nc2ccc(Cl)nc2C(=O)O)c2nc(N3CCCOCC3)c(C#N)nc2c1 [Example 242, (R)-6-chloro-3-((1-(2-cyano-7-methyl-3-(1,4-oxazepan-4-yl)quinoxalin-5-yl)ethyl)amino)picolinic acid] | 5.08 | 7.46 | 9.55 |
| Cc1cc([C@@H](C)Nc2ccc(Cl)nc2C(=O)O)c2nc(C3CCOCC3)c(C#N)nc2c1 [Example 233, (R)-6-chloro-3-((1-(2-cyano-7-methyl-3-(tetrahydro-2H-pyran-4-yl)quinoxalin-5-yl)ethyl)amino)picolinic acid] | < 5.00 | 7.07 | 9.77 |
| Cc1cc([C@@H](C)Nc2ccc(Cl)nc2C(=O)O)c2nc(N3Cc4ccc(F)cc4C3)c(C#N)nc2c1 [Example 24, (R)-6-chloro-3-((1-(2-cyano-3-(5-fluoroisoindolin-2-yl)-7-methylquinoxalin-5-yl)ethyl)amino)picolinic acid] | < 5.00 | 7.35 | 8.89 |
| C[C@H](Nc1ccccc1C(=O)O)c1cc(F)cc2nc(C#N)c(N3CCC(F)(F)CC3)nc12 [Example 31, (S)-2-((1-(2-cyano-3-(4,4-difluoropiperidin-1-yl)-7-fluoroquinoxalin-5-yl)ethyl)amino)benzoic acid] | < 5.00 | < 5.00 | 6.25 |
| Cc1cc([C@@H](C)Nc2ccc(Cl)nc2C(=O)O)c2nc(N3CCCC(F)(F)CC3)c(C#N)nc2c1 [Example 847, (R)-6-chloro-3-((1-(2-cyano-3-(4,4-difluoroazepan-1-yl)-7-methylquinoxalin-5-yl)ethyl)amino)picolinic acid] | 5.31 | 7.23 | 8.74 |
| Cc1cc([C@@H](C)Nc2ccc(Cl)nc2C(=O)O)c2nc(N3CCN(c4cc(C)no4)CC3)c(C#N)nc2c1 [Example 200, (R)-6-chloro-3-((1-(2-cyano-7-methyl-3-(4-(3-methylisoxazol-5-yl)piperazin-1-yl)quinoxalin-5-yl)ethyl)amino)picolinic acid] | 5.26 | 7.76 | 8.92 |
| C[C@H](Nc1ccccc1C(=O)O)c1cc(Cl)cc2nc(C#N)c(N3CCC(F)(F)CC3)nc12 [Example 29, (S)-2-((1-(7-chloro-2-cyano-3-(4,4-difluoropiperidin-1-yl)quinoxalin-5-yl)ethyl)amino)benzoic acid] | < 5.00 | 5.46 | 6.93 |
| COC[C@H]1[C@H]2CN(c3nc4c([C@@H](C)Nc5ccc(Cl)nc5C(=O)O)cc(C)cc4nc3C#N)C[C@@H]12 [Example 213, 6-chloro-3-(((R)-1-(2-cyano-3-((1R,5S,6S)-6-(methoxymethyl)-3-azabicyclo[3.1.0]hexan-3-yl)-7-methylquinoxalin-5-yl)ethyl)amino)picolinic acid] | 5.02 | 7.21 | 9.04 |
| Cc1cc([C@@H](C)Nc2cccnc2C(=O)O)c2nc(N3CCOCC3)c(C#N)nc2c1 [Example 203, (R)-3-((1-(2-cyano-7-methyl-3-morpholinoquinoxalin-5-yl)ethyl)amino)picolinic acid] | 5.65 | 6.25 | 7.60 |
| Cc1cc([C@@H](C)Nc2ccc(Cl)nc2C(=O)O)c2nc(N3CCc4ccn(C)c(=O)c4C3)c(C#N)nc2c1 [Example 222, (R)-6-chloro-3-((1-(2-cyano-7-methyl-3-(7-methyl-8-oxo-3,4,7,8-tetrahydro-2,7-naphthyridin-2(1H)-yl)quinoxalin-5-yl)ethyl)amino)picolinic acid] | < 5.00 | 6.65 | 8.38 |
| Cc1cc([C@@H](C)Nc2ccc(Cl)nc2C(=O)O)c2nc(N3CCOCC3)c(C#N)nc2c1 [Example 58, (R)-6-chloro-3-((1-(2-cyano-7-methyl-3-morpholinoquinoxalin-5-yl)ethyl)amino)picolinic acid] | 5.46 | 7.62 | 8.74 |
| Cc1cc([C@@H](C)Nc2ccccc2C(=O)O)c2nc(N3CCC(F)(F)CC3)c(C)nc2c1 [Example 36, (R)-2-((1-(3-(4,4-difluoropiperidin-1-yl)-2,7-dimethylquinoxalin-5-yl)ethyl)amino)benzoic acid] | < 5.00 | 5.93 | 7.03 |
| Cc1cc([C@@H](C)Nc2ccc(Cl)nc2C(=O)O)c2nc(N3C[C@@H]4C[C@H]3CC4(F)F)c(C#N)nc2c1 (single isomer, unassigned) [Example 8] | 5.44 | 7.47 | 8.11 |
| Cc1cc([C@@H](C)Nc2ccc(Cl)nc2C(=O)O)c2nc(N3CC4(CC(F)C4)C3)c(C#N)nc2c1 [Example 258, (R)-6-chloro-3-((1-(2-cyano-3-(6-fluoro-2-azaspiro[3.3]heptan-2-yl)-7-methylquinoxalin-5-yl)ethyl)amino)picolinic acid] | 5.06 | 7.07 | 8.52 |

The remaining lines, values ahead:

| pIC50 [1] | pIC50 [2] | pIC50 [3] | SMILES |
| --- | --- | --- | --- |
| < 5.00 | 6.57 | 8.36 | Cc1cc([C@@H](C)Nc2ccc(Cl)nc2C(=O)O)c2nc(N3CCO[C@H](C(F)(F)F)C3)c(C#N)nc2c1 [Example 190A, 6-chloro-3-(((R)-1-(2-cyano-7-methyl-3-((S)-2-(trifluoromethyl)morpholino)quinoxalin-5-yl)ethyl)amino)picolinic acid] |
| < 5.00 | 6.66 | 8.44 | COC[C@H]1CN(c2nc3c([C@@H](C)Nc4ccc(Cl)nc4C(=O)O)cc(C)cc3nc2C#N)CCO1 [Example 236B, 6-chloro-3-(((R)-1-(2-cyano-3-((R)-2-(methoxymethyl)morpholino)-7-methylquinoxalin-5-yl)ethyl)amino)picolinic acid] |
| 5.29 | 6.95 | 8.24 | Cc1cc([C@@H](C)Nc2ccc(Cl)nc2C(=O)O)c2nc(N3CC[C@]4(CCCO4)C3)c(C#N)nc2c1 (single isomer, unassigned) [Example 253B] |
| < 5.00 | 7.28 | 9.05 | COC[C@@H]1CN(c2nc3c([C@@H](C)Nc4ccc(Cl)nc4C(=O)O)cc(C)cc3nc2C#N)CCO1 [Example 236A, 6-chloro-3-(((R)-1-(2-cyano-3-((S)-2-(methoxymethyl)morpholino)-7-methylquinoxalin-5-yl)ethyl)amino)picolinic acid] |
| < 5.00 | 6.87 | 9.16 | Cc1cc([C@@H](C)Nc2ccc(Cl)nc2C(=O)O)c2nc(N3C[C@H](CO)C(F)(F)C3)c(C#N)nc2c1 (single isomer, unassigned) [Example 210A] |
| < 5.00 | 7.30 | 9.28 | Cc1cc([C@@H](C)Nc2ccc(Cl)nc2C(=O)O)c2nc(N3C[C@H]4CO[C@H](C4)C3)c(C#N)nc2c1 (single isomer, unassigned) [Example 243B] |
| < 5.00 | 7.00 | 9.43 | CO[C@@H](C)C1CCN(c2nc3c([C@@H](C)Nc4ccc(Cl)nc4C(=O)O)cc(C)cc3nc2C#N)CC1 (single isomer, unassigned) [Example 195B] |
| 5.51 | 7.78 | 9.26 | Cc1cc([C@@H](C)Nc2ccc(Cl)nc2C(=O)O)c2nc(N3C[C@H]4COC[C@@H]4C3)c(C#N)nc2c1 (single isomer, unassigned) [Example 229A] |
| 5.16 | 6.71 | 8.25 | Cc1cc([C@@H](C)Nc2ccc(Cl)nc2C(=O)O)c2nc(N3CC[C@@]4(CCCO4)C3)c(C#N)nc2c1 (single isomer, unassigned) [Example 253A] |
